# Experimental data from ChEMBL document CHEMBL3102825, “Exploration of a series of 5-arylidene-2-thioxoimidazolidin-4-ones as inhibitors of the cytolytic protein perforin” (J Med Chem, 2013).
# Test: Aqueous solubility of the compound
# Assay type: physicochemical
row,solubility [µg/mL],SMILES
1,43,O=C1NC(=S)[N-]/C1=C/c1ccc(-c2ccc3c(c2)COC3=O)s1.[Na+]
2,10200,O=C1NC(=S)[N-]/C1=C/c1ccc(-c2ccc3c(c2)CN(CCCO)C3=O)s1.[Na+]
3,397,CCOC(=O)N1Cc2cc(-c3ccc(/C=C4/[N-]C(=S)NC4=O)s3)ccc2C1=O.[Na+]
4,3430,O=C1NC(=S)[N-]/C1=C/c1ccc(-c2ccc3c(c2)CN(CCO)C3=O)s1.[Na+]
5,151,CN1Cc2cc(-c3ccc(/C=C4/[N-]C(=S)NC4=O)s3)ccc2C1=O.[Na+]
6,140,O=C1NC(=S)[N-]/C1=C/c1ccc(-c2ccc3c(c2)CNC3=O)s1.[Na+]

# Second part, the compound before the results:
row,SMILES,solubility [µg/mL]
1,O=C1NC(=S)[N-]/C1=C/c1ccc(-c2ccc3c(c2)C(=O)NCC3)s1.[Na+],37.2
2,O=C1NC(=S)[N-]/C1=C/c1ccc(-c2ccc3c(c2)CCNC3=O)s1.[Na+],1570
3,O=C1[N-]/C(=C/c2ccc(-c3ccc4c(c3)CNC4=O)s2)C(=O)N1.[Na+],136
4,CC1c2cc(-c3ccc(/C=C4/[N-]C(=S)NC4=O)s3)ccc2C(=O)N1C.[Na+] (stereo not given),1410
